Like-named read-outs stand apart in the source and are kept apart here.
Columns and labels:
[1] = biological target: human nociceptin/orphanin FQ peptide (hNOP) receptor (Homo sapiens (Human), UniProt P41146); assay: hNOP receptor binding assay (SPA); settings: Ki; displacement of [leucyl-3H]nociceptin, hNOP receptor membranes; read-out: hNOP Ki [nM] or % inhibition at 1 μM
Method: Human Nociceptin/Orphanin FQ Peptide (hNOP) Receptor Binding Assay
The hNOP receptor binding assay was performed as homogeneous SPA-assay (scintillation proximity assay) using the assay buffer 50 mM TRIS-HCl, 10 mM MgCl2, 1 mM EDTA (pH 7.4). The final assay volume (250 μl/well) included 0.5 nM of [leucyl-^3H]nociceptin as ligand (PerkinElmer Life Sciences. Inc. Boston, Mass. USA) and either test compound in dilution series or 1 μM unlabelled nociceptin for determination of unspecific binding. The test compound was diluted with 25% DMSO in H2O to yield a final 0.5% DMSO concentration which also served as a respective vehicle control. The assay was started by adding wheat germ agglutinin coated SPA beads (GE Healthcare UK Ltd. Buckinghamshire. UK) which had been preloaded with hNOP receptor membranes (PerkinElmer Life Sciences. Inc. Boston, Mass. USA). After incubation for 60 minutes at RT and centrifugation for 20 minutes at 500 rpm the signal rate was measured by means of a 1450 Microbeta Trilux ß-counter (PerkinElmer Life Sciences/Wallac. Turku. Finland). Half-maximal inhibitory concentration (IC50) values reflecting 50% displacement of [^3H]nociceptin-specific receptor binding were calculated by nonlinear regression analysis and Ki values were calculated by using the Cheng-Prusoff equation. (Cheng and Prusoff. 1973).

[2] = biological target: human mu-opioid peptide (hMOP) receptor (Homo sapiens (Human), UniProt P35372); assay: hMOP receptor binding assay (SPA)
Method: Human Mu-Opioidpeptide (hMOP) Receptor Binding Assay
The hMOP receptor binding assay was performed as homogeneous SPA-assay (scintillation proximity assay) using the assay buffer 50 mM TRIS-HCl (pH 7.4) supplemented with 0.052 mg/ml bovine serum albumin (Sigma-Aldrich Co. St. Louis, Mo.). […] The assay was started by adding wheat germ agglutinin coated SPA beads (GE Healthcare UK Ltd. Buckinghamshire. UK) which had been preloaded with hMOP receptor membranes (PerkinElmer Life Sciences. Inc. Boston, Mass. USA).

[3] = Ki, displacement of [3H]naloxone, hMOP receptor membranes, read-out: hMOP Ki [nM] or % inhibition at 1 μM
[4] = read-out: hMOP Ki [nM] or % inhibition at 1 μM

Sequence of human mu-opioid peptide (hMOP) receptor (P35372 whole entry): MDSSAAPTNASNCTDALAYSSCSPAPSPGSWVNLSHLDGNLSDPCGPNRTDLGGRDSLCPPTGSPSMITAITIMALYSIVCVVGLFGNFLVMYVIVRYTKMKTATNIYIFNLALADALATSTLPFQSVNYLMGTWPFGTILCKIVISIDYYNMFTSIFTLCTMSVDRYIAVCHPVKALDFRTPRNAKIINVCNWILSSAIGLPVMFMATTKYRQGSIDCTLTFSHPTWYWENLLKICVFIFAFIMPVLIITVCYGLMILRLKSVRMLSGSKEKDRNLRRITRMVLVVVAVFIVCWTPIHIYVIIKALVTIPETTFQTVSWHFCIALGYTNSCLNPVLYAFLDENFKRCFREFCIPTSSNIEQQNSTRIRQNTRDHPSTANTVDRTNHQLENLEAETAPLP

CN(C)[C@]1(c2cccc(F)c2)C[C@@]2(CN(c3ccc(OC(F)(F)F)cn3)C(=O)N2CC2CC2)C1 [SC-18, Cis-5-(cyclopropylmethyl)-2-(dimethylamino)-2-(3-fluorophenyl)-7-(5-(trifluoromethoxy)pyridin-2-yl)-5,7-diazaspiro[3.4]octan-6-one] gave a Ki [1] of 55 nM and a Ki [2, 3] of 805 nM.

For CN(C)[C@]1(c2ccccc2)C[C@]2(CN(CC(=O)N3CCS(=O)(=O)CC3)C(=O)N2)C1 [SC-4, trans-2-(dimethylamino)-7-(2-(1,1-dioxidothiomorpholino)-2-oxoethyl)-2-phenyl-5,7-diazaspiro[3.4]octan-6-one], the Ki [1] was 860 nM and the Ki [2, 3] was 15 nM.

Work on CN(C)[C@]1(c2ccccc2)C[C@@]2(CN(CC3(O)CCC3)C(=O)N2CC2CC2)C1 [SC-46, Cis-5-(cyclopropylmethyl)-2-(dimethylamino)-7-[(1-hydroxycyclobutyl)methyl]-2-phenyl-5,7-diazaspiro[3.4]octan-6-one] yielded a Ki [1] of 29 nM and a Ki [2, 3] of 48 nM.

Work on CN(C)[C@]1(c2ccccc2)C[C@@]2(CN(c3cnc(C#N)c(C(F)(F)F)c3)C(=O)N2CC2CC2)C1 [SC-40, Cis-5-[5-(cyclopropylmethyl)-2-(dimethylamino)-6-oxo-2-phenyl-5,7-diazaspiro[3.4]octan-7-yl]-3-(trifluoromethyl)pyridine-2-carbonitrile] yielded a Ki [1] of 6 nM and a Ki [2, 3] of 102 nM.

With CN(C)[C@]1(c2ccccc2)C[C@@]2(CN(c3ccc(C4CC4)nc3)C(=O)N2CC2CC2)C1 [SC-34, Cis-5-(cyclopropylmethyl)-7-(6-cyclopropylpyridin-3-yl)-2-(dimethylamino)-2-phenyl-5,7-diazaspiro[3.4]octan-6-one] the Ki [1] was 17 nM and the Ki [2, 3] was 50 nM.

CN(C)[C@]1(c2ccccc2)C[C@@]2(CN(CC(N)=O)C(=O)N2)C1 [SC-1, Cis-2-(2-(dimethylamino)-6-oxo-2-phenyl-5,7-diazaspiro[3.4]octan-7-yl)acetamide] was tested, and the Ki [1] was 200 nM and the inhibition at 1 µM [2, 4] was 19%.

CN(C)[C@]1(c2cccc(F)c2)C[C@@]2(CN(CCC#N)C(=O)N2CC2CC2)C1 [SC-44, cis-3-(5-(cyclopropylmethyl)-2-(dimethylamino)-2-(3-fluorophenyl)-6-oxo-5,7-diazaspiro[3.4]octan-7-yl)propanenitrile] was tested, and the Ki [1] was 15 nM and the Ki [2] was 110 nM.

Compound Cc1cc(C(C)(C)O)ncc1N1C[C@]2(C[C@](c3ccccc3)(N(C)C)C2)NC1=O [SC-20, Cis-2-(dimethylamino)-7-(6-(2-hydroxypropan-2-yl)-4-methylpyridin-3-yl)-2-phenyl-5,7-diazaspiro[3.4]octan-6-one] has a Ki [1] of 1160 nM and a Ki [2, 3] of 5840 nM.

COc1nc(C#N)ncc1N1C[C@]2(C[C@@](c3ccccc3)(N(C)C)C2)NC1=O [SC-5, trans-5-(2-(dimethylamino)-6-oxo-2-phenyl-5,7-diazaspiro[3.4]octan-7-yl)-4-methoxypyrimidine-2-carbonitrile] gave a Ki [1] of 800 nM and a Ki [2, 3] of 99 nM.

For Cc1cc(C(F)F)ncc1N1C[C@]2(C[C@](c3cccc(F)c3)(N(C)C)C2)NC1=O [SC-22, cis-7-(6-(difluoromethyl)-4-methylpyridin-3-yl)-2-(dimethylamino)-2-(3-fluorophenyl)-5,7-diazaspiro[3.4]octan-6-one], the Ki [1] was 380 nM and the inhibition at 1 µM [2, 4] was 11%.

Compound CN(C)[C@]1(c2ccccc2)C[C@@]2(CN(c3cnc(-c4ccncc4)nc3)C(=O)N2CC2CC2)C1 [SC-43, Cis-5-(cyclopropylmethyl)-2-(dimethylamino)-2-phenyl-7-(2-pyridin-4-ylpyrimidin-5-yl)-5,7-diazaspiro[3.4]octan-6-one] has a Ki [1] of 31 nM and a Ki [2, 3] of 83 nM.

Work on Cc1cc(C#N)cnc1N1C[C@]2(C[C@](c3cccc(F)c3)(N(C)C)C2)N(CC2CC2)C1=O [SC-16, Cis-6-(5-(cyclopropylmethyl)-2-(dimethylamino)-2-(3-fluorophenyl)-6-oxo-5,7-diazaspiro[3.4]octan-7-yl)-5-methylnicotinonitrile] yielded a Ki [1] of 31 nM and a Ki [2, 3] of 1320 nM.

CN(C)[C@]1(c2ccccc2)C[C@@]2(CN(c3cncc(C(F)(F)F)c3)C(=O)N2CC2CC2)C1 [SC-39, Cis-5-(cyclopropylmethyl)-2-(dimethylamino)-2-phenyl-7-[5-(trifluoromethyl)pyridin-3-yl]-5,7-diazaspiro[3.4]octan-6-one] gave a Ki [1] of 5 nM and a Ki [2, 3] of 48 nM.

Work on CN(C)[C@]1(c2ccccc2)C[C@]2(CN(CC(=O)N3CCS(=O)(=O)CC3)C(=O)N2CC2CCC2)C1 [SC-7, trans-5-(cyclobutylmethyl)-2-(dimethylamino)-7-(2-(1,1-dioxidothiomorpholino)-2-oxoethyl)-2-phenyl-5,7-diazaspiro[3.4]octan-6-one] yielded a Ki [1] of 230 nM and a Ki [2, 3] of 2 nM.

COC(C)(C)CN1C[C@]2(C[C@](c3cccc(F)c3)(N(C)C)C2)N(CC2CC2)C1=O [SC-37, Cis-5-(cyclopropylmethyl)-2-(dimethylamino)-2-(3-fluorophenyl)-7-(2-methoxy-2-methylpropyl)-5,7-diazaspiro[3.4]octan-6-one] showed a Ki [1] of 37 nM and a Ki [2] of 44 nM.

Work on CN(C)[C@]1(c2cccc(F)c2)C[C@@]2(CN(c3ccc(C(C)(C)O)cc3)C(=O)N2CC2CC2)C1 [SC-28, Cis-5-(cyclopropylmethyl)-2-(dimethylamino)-2-(3-fluorophenyl)-7-(4-(2-hydroxypropan-2-yl)phenyl)-5,7-diazaspiro[3.4]octan-6-one] yielded a Ki [1] of 46 nM and a Ki [2, 3] of 78 nM.
